The values that follow come from patent US11345712B2, “Protein-targeting compounds and pharmaceutical compositions thereof, and their therapeutic applications” (BioTheryX, Inc., priority 2019, dated 2022).

The subject of this assay is MOLM-13 cells. Kind of assay: MOLM-13 cell viability assay (CellTiter-Glo). It is filed as cell-based. Conditions: Homo sapiens, MOLM-13, 72 h, 3 days, concentration of 1 μM, read-out: Antiproliferative Activity (inhibition, MOLM-13 cell viability). As for the experimental part:
MOLM-13 cells were cultured in RPMI 1640 media supplemented with 10% fetal bovine serum, streptomycin, and penicillin. The cells were plated in white walled 96-well plates at 2,500 cells/well. The cells were incubated in DMSO (control) or an indicated compound for 3 days at 37° C. and 5% CO2. Following the incubation period, 100 μL of CELLTITER-GLO® (CTG) reagent was added to each well. Following a 10 minutes incubation with shaking, luminescence was measured using an ENVISION® Multimode plate reader.
With `Cc1ccc(C=CC(=O)NCc2scc3c2CN(C2CCC(=O)NC2=O)C3=O)cc1Cl` (centres unmarked) [II-34, 3-(3-chloro-4-methylphenyl)-N-((5-(2,6-dioxopiperidin-3-yl)-4-oxo-5,6-dihydro-4H-thieno[3,4-c]pyrrol-1-yl)methyl)propenamide], the cytotoxicity at 1 µM is > 80%. For `Cc1ccc(CC(=O)NCc2cc3c(s2)C(=O)N(C2CCC(=O)NC2=O)C3)cc1Cl` (centres unmarked) [II-30, 2-(3-chloro-4-methylphenyl)-N-((5-(2,6-dioxopiperidin-3-yl)-6-oxo-5,6-dihydro-4H-thieno[2,3-c]pyrrol-2-yl)methyl)acetamide], the cytotoxicity at 1 µM was < 25%. As to `O=C1CCC(N2C(=O)c3cccc(CNC(=O)C(=O)c4ccc(C5(C(F)(F)F)CC5)cc4)c3C2=O)C(=O)N1` (centres unmarked) [Compound I-58, N-((2-(2,6-dioxopiperidin-3-yl)-1,3-dioxoisoindolin-4-yl)methyl)-2-oxo-2-(4-(1-(trifluoromethyl)cyclopropyl)phenyl)acetamide], the cytotoxicity at 1 µM was 50 to 80%. Consider `CC(CCc1ccc(C(C)(C)C)cc1)C(=O)NCc1scc2c1CN(C1CCC(=O)NC1=O)C2=O` (centres unmarked) [II-86, 4-(4-(tert-butyl)phenyl)-N-((5-(2,6-dioxopiperidin-3-yl)-4-oxo-5,6-dihydro-4H-thieno[3,4-c]pyrrol-1-yl)methyl)-2-methylbutanamide], for which the cytotoxicity at 1 µM was < 25%. As for `COc1cccc(C(=O)C(=O)NCc2cccc3c2CN(C2CCC(=O)NC2=O)C3=O)c1` (centres unmarked) [Compound I-94, 2-(3-methoxyphenyl)-N-((2-(2,6-dioxopiperidin-3-yl)-1-oxoisoindolin-4-yl)methyl)-2-oxoacetamide], the cytotoxicity at 1 µM was < 25%.

`Cc1ccc(NC(=O)NCc2cc3c(s2)C(=O)N([C@@H]2CCC(=O)NC2=O)C3)cc1Cl` [II-91, (R)-1-(3-chloro-4-methylphenyl)-3-((5-(2,6-dioxopiperidin-3-yl)-6-oxo-5,6-dihydro-4H-thieno[2,3-c]pyrrol-2-yl)methyl)urea]: the cytotoxicity at 1 µM was > 80%.

For `CC(C)(C)c1ccc(C2(C(=O)NCc3scc4c3CN(C3CCC(=O)NC3=O)C4=O)CC2)cc1` (centres unmarked) [II-127, 1-(4-(tert-butyl)phenyl)-N-((5-(2,6-dioxopiperidin-3-yl)-4-oxo-5,6-dihydro-4H-thieno[3,4-c]pyrrol-1-yl)methyl)cyclopropane-1-carboxamide], the cytotoxicity at 1 µM fell in the range of 25 to 50%. Then `CC(C)(C)c1ccc(C(=O)C(=O)NCc2ccc3c(c2)CN([C@H]2CCCC(=O)NC2=O)C3=O)cc1` [Compound I-10, (S)-2-(4-(tert-butyl)phenyl)-N-((2-(2,7-dioxoazepan-3-yl)-1-oxoisoindolin-5-yl)methyl)-2-oxoacetamide], with > 80%; and `CC(C)(C)c1cccc(C(=O)C(=O)NCc2ccc3c(c2)CN(C2CCC(=O)NC2=O)C3=O)c1` (centres unmarked) [Compound I-33, 2-(3-(tert-butyl)phenyl)-N-((2-(2,6-dioxopiperidin-3-yl)-1-oxoisoindolin-5-yl)methyl)-2-oxoacetamide], with > 80%; and `CC(C)c1ccc(C(C(=O)NCc2scc3c2CN(C2CCC(=O)NC2=O)C3=O)C(C)C)cc1` (centres unmarked) [II-106, N-((5-(2,6-dioxopiperidin-3-yl)-4-oxo-5,6-dihydro-4H-thieno[3,4-c]pyrrol-1-yl)methyl)-2-(4-isopropylphenyl)-3-methylbutanamide], with < 25%. As for `COc1ccc(C(=O)C(=O)NCc2scc3c2CN(C2CCC(=O)NC2=O)C3=O)cc1` (centres unmarked) [Compound I-11, 2-(4-methoxyphenyl)-N-((5-(2,6-dioxopiperidin-3-yl)-4-oxo-5,6-dihydro-4H-thieno[3,4-c]pyrrol-1-yl)methyl)-2-oxoacetamide], the cytotoxicity at 1 µM was < 25%. For `O=C(Cc1ccc(N2CCOCC2)cc1)NCc1scc2c1CN(C1CCC(=O)NC1=O)C2=O` (centres unmarked) [II-83, N-((5-(2,6-dioxopiperidin-3-yl)-4-oxo-5,6-dihydro-4H-thieno[3,4-c]pyrrol-1-yl)methyl)-2-(4-morpholinophenyl)acetamide], the cytotoxicity at 1 µM is < 25%. With `CC(C)c1cc(NC(=O)NCc2cc3c(s2)C(=O)N(C2CCC(=O)NC2=O)C3)cc(N(C)C)c1` (centres unmarked) [II-60, 1-(3-(dimethylamino)-5-isopropylphenyl)-3-((5-(2,6-dioxopiperidin-3-yl)-6-oxo-5,6-dihydro-4H-thieno[2,3-c]pyrrol-2-yl)methyl)urea], the cytotoxicity at 1 µM was > 80%. Then `Cc1ccc(NC(=O)NCc2cc3c(s2)C(=O)N(C2CCC(=O)NC2=O)C3)cc1CN(C)C` (centres unmarked) [II-51, 1-(3-((dimethylamino)methyl)-4-methylphenyl)-3-((5-(2,6-dioxopiperidin-3-yl)-6-oxo-5,6-dihydro-4H-thieno[2,3-c]pyrrol-2-yl)methyl)urea], with < 25%. Regarding `Cc1cc(NC(=O)NCc2cc3c(s2)C(=O)N(C2CCC(=O)NC2=O)C3)ccc1N1CCOCC1` (centres unmarked) [II-26, 1-((5-(2,6-dioxopiperidin-3-yl)-6-oxo-5,6-dihydro-4H-thieno[2,3-c]pyrrol-2-yl)methyl)-3-(3-methyl-4-morpholinophenyl)urea], the cytotoxicity at 1 µM was < 25%. For `COc1ccc(C(=O)C(=O)NCc2cccc3c2CN(C2CCC(=O)NC2=O)C3=O)cc1` (centres unmarked) [Compound I-78, 2-(4-methoxyphenyl)-N-((2-(2,6-dioxopiperidin-3-yl)-1-oxoisoindolin-4-yl)methyl)-2-oxoacetamide] the value was 25 to 50%. For the compound `Cc1ccc(NC(=O)NCc2cc3c(s2)C(=O)N(C2CCC(=O)NC2=O)C3)cc1O` (centres unmarked) [II-46, 1-((5-(2,6-dioxopiperidin-3-yl)-6-oxo-5,6-dihydro-4H-thieno[2,3-c]pyrrol-2-yl)methyl)-3-(3-hydroxy-4-methylphenyl)urea], the cytotoxicity at 1 µM fell in the range of 25 to 50%.

As to `NC(C(=O)NCc1scc2c1CN(C1CCC(=O)NC1=O)C2=O)c1cccc(Cl)c1` (centres unmarked) [II-89, 2-amino-2-(3-chlorophenyl)-N-((5-(2,6-dioxopiperidin-3-yl)-4-oxo-5,6-dihydro-4H-thieno[3,4-c]pyrrol-1-yl)methyl)acetamide], the cytotoxicity at 1 µM was < 25%. Consider `Cc1ccc(NC(=O)NCCc2scc3c2CN(C2CCC(=O)NC2=O)C3=O)cc1Cl` (centres unmarked) [II-31, 1-(3-chloro-4-methylphenyl)-3-(2-(5-(2,6-dioxopiperidin-3-yl)-4-oxo-5,6-dihydro-4H-thieno[3,4-c]pyrrol-1-yl)ethyl)urea], for which the cytotoxicity at 1 µM is > 80%. `Cc1cc(C(=O)C(=O)NCc2scc3c2CN(C2CCC(=O)NC2=O)C3=O)ccc1C(C)(C)C` (centres unmarked) [Compound I-27, 2-(3-methyl-4-(tert-butyl)phenyl)-N-((5-(2,6-dioxopiperidin-3-yl)-4-oxo-5,6-dihydro-4H-thieno[3,4-c]pyrrol-1-yl)methyl)-2-oxoacetamide]: the cytotoxicity at 1 µM is > 80%. Consider `O=C(CN1CCOCC1)NCc1scc2c1CN(C1CCC(=O)NC1=O)C2=O` (centres unmarked) [II-78, N-((5-(2,6-dioxopiperidin-3-yl)-4-oxo-5,6-dihydro-4H-thieno[3,4-c]pyrrol-1-yl)methyl)-2-morpholinoacetamide], for which the cytotoxicity at 1 µM was < 25%.

Take `CC(C)(CO)c1ccc(C(=O)C(=O)NCc2scc3c2CN(C2CCC(=O)NC2=O)C3=O)cc1` (centres unmarked) [Compound I-43, N-((5-(2,6-dioxopiperidin-3-yl)-4-oxo-5,6-dihydro-4H-thieno[3,4-c]pyrrol-1-yl)methyl)-2-(4-(1-hydroxy-2-methylpropan-2-yl)phenyl)-2-oxoacetamide]: the cytotoxicity at 1 µM is < 25%. Then `O=C1CCC(N2Cc3c(csc3CNC(=O)Nc3c(Cl)cccc3Cl)C2=O)C(=O)N1` (centres unmarked) [II-43, 1-(2,6-dichlorophenyl)-3-((5-(2,6-dioxopiperidin-3-yl)-4-oxo-5,6-dihydro-4H-thieno[3,4-c]pyrrol-1-yl)methyl)urea], with 25 to 50%. `CC(=O)Nc1ccc(C(=O)C(=O)NCc2scc3c2CN(C2CCC(=O)NC2=O)C3=O)cc1` (centres unmarked) [Compound I-20, 2-(4-acetamidophenyl)-N-((5-(2,6-dioxopiperidin-3-yl)-4-oxo-5,6-dihydro-4H-thieno[3,4-c]pyrrol-1-yl)methyl)-2-oxoacetamide]: the cytotoxicity at 1 µM was < 25%.

With `CC1(c2ccc(C(=O)C(=O)NCc3scc4c3CN(C3CCC(=O)NC3=O)C4=O)cc2)CC1` (centres unmarked) [Compound I-42, N-((5-(2,6-dioxopiperidin-3-yl)-4-oxo-5,6-dihydro-4H-thieno[3,4-c]pyrrol-1-yl)methyl)-2-(4-(1-methylcyclopropyl)phenyl)-2-oxoacetamide], the cytotoxicity at 1 µM lay within 50 to 80%. Regarding `CC(C)C(C(=O)NCc1scc2c1CN(C1CCC(=O)NC1=O)C2=O)c1ccc(C(C)(C)C)cc1` (centres unmarked) [II-94, 2-(4-(tert-butyl)phenyl)-N-((5-(2,6-dioxopiperidin-3-yl)-4-oxo-5,6-dihydro-4H-thieno[3,4-c]pyrrol-1-yl)methyl)-3-methylbutanamide], the cytotoxicity at 1 µM is < 25%.

Consider `CN(C)Cc1ccc(C(=O)C(=O)NCc2scc3c2CN(C2CCC(=O)NC2=O)C3=O)cc1` (centres unmarked) [Compound I-25, 2-(4-((dimethylamino)methyl)phenyl)-N-((5-(2,6-dioxopiperidin-3-yl)-4-oxo-5,6-dihydro-4H-thieno[3,4-c]pyrrol-1-yl)methyl)-2-oxoacetamide], for which the cytotoxicity at 1 µM is < 25%. Then `Cc1ccc(CC(=O)NCc2scc3c2CN(C2CCC(=O)NC2=O)C3=O)cc1Cl` (centres unmarked) [II-24, 2-(3-chloro-4-methylphenyl)-N-((5-(2,6-dioxopiperidin-3-yl)-4-oxo-5,6-dihydro-4H-thieno[3,4-c]pyrrol-1-yl)methyl)acetamide], with < 25%; and `CC(C)(C)c1ccc(CC(=O)NCc2scc3c2CN(C2CCC(=O)NC2=O)C3=O)cc1` (centres unmarked) [II-62, 2-(4-(tert-butyl)phenyl)-N-((5-(2,6-dioxopiperidin-3-yl)-4-oxo-5,6-dihydro-4H-thieno[3,4-c]pyrrol-1-yl)methyl)acetamide], with 25 to 50%.
